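Where inhibition never reached the appropriate level, the endpoint shown equals the highest concentration tested. Otherwise, values were interpolated linearly from a five-concentration, 48-hour dose response in 96-well plates. TGI is the concentration that stops growth completely.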 Where a SMILES comes first, the peptide text is derived from it. Bridges are numbered along the chain shown (N, C = ends). [ ]: non-standard residue; d: D form. The star is where a group is joined. Cbz = O=C(OCc1ccccc1)*; Aib = CC(C)(N)C(=O)O; OBn = c1ccc(CO*)cc1; βAla = NCCC(=O)O
Columns and labels:
Experiment in all cases: DTP human tumour cell line panel, 48 h
NCI-H226 lung = test system: NCI-H226 lung
COLO 205 colon = test system: COLO 205 colon
PC-3 prostate = test system: PC-3 prostate
KM20L2 colon = test system: KM20L2 colon
XF 498 CNS = test system: XF 498 CNS
M19-MEL melanoma = test system: M19-MEL melanoma
DLD-1 colon = test system: DLD-1 colon
LXFL 529 NSCLC = test system: LXFL 529 NSCLC
DMS 273 small cell lung = test system: DMS 273 small cell lung
HOP-18 NSCLC = test system: HOP-18 NSCLC
DMS 114 small cell lung = test system: DMS 114 small cell lung
SNB-78 CNS = test system: SNB-78 CNS
RXF-631 renal = test system: RXF-631 renal

CCCCn1c(C)c(C(=O)OCC)c2cc(OCc3ccc(C(=O)Nn4c(C)ccc4C)cc3)c(Br)cc21
TGI (NCI-H226 lung): > 100 µM | TGI (COLO 205 colon): > 100 µM | TGI (PC-3 prostate): > 100 µM

COC(=O)c1ccc2c(c1)CC1(C2)Cc2cc3c(cc2C1=O)CCC3 (centres undefined)
TGI (COLO 205 colon): 38.7 µM | TGI (PC-3 prostate): > 100 µM

CSc1nc(Cl)c2c(n1)Sc1nc3cc4c(cc3n1C2O)OCO4 (centres undefined)
TGI (NCI-H226 lung): 6.09 µM | TGI (COLO 205 colon): 0.686 µM | TGI (PC-3 prostate): > 60.3 µM

COc1ccccc1N1C(=O)/C(=C\c2cccc(Oc3ccccc3)c2)SC1c1ccccc1 (centres undefined)
TGI (COLO 205 colon): 55 µM | TGI (PC-3 prostate): > 100 µM

O=C(CC(=O)n1nc(-c2ccccc2)c(N=Nc2ccc(Cl)cc2)c1-c1ccccc1)Nc1cccc(Cl)c1
TGI (NCI-H226 lung): > 100 µM | TGI (COLO 205 colon): > 100 µM | TGI (PC-3 prostate): > 100 µM

C=CCN1C(=O)/C(=C/c2ccccc2)NC1=S
TGI (NCI-H226 lung): > 100 µM | TGI (COLO 205 colon): > 100 µM | TGI (PC-3 prostate): > 100 µM

CC(C)NC(=O)OCc1c(COC(=O)NC(C)C)c(-c2ccc[n+](COC(=O)CC(C)(C)C)c2)n2c1CCC2
TGI (NCI-H226 lung): > 100 µM | TGI (COLO 205 colon): > 100 µM | TGI (PC-3 prostate): > 100 µM

C/C(=N\NC(=S)N1CC2CCC(CC2)C1)c1ccncn1
TGI (NCI-H226 lung): 2.33 µM | TGI (COLO 205 colon): < 0.0333 µM | TGI (PC-3 prostate): 15 µM

CN(C)/N=C(\CCN1CCCC1)CC(c1ccccc1)c1c(O)c2ccccc2oc1=O (centres undefined)
TGI (KM20L2 colon): > 100 µM | TGI (NCI-H226 lung): > 100 µM | TGI (XF 498 CNS): > 100 µM | TGI (M19-MEL melanoma): > 100 µM | TGI (COLO 205 colon): > 100 µM | TGI (DLD-1 colon): > 100 µM | TGI (LXFL 529 NSCLC): > 100 µM

CC1=C2C3=C(C)C(=O)C(C)(C)CC[C@@]3(C)[C@]2(C)CCC(C)(C)C1=O
TGI (NCI-H226 lung): > 100 µM | TGI (COLO 205 colon): > 100 µM | TGI (PC-3 prostate): > 100 µM

NS(=O)(=O)c1nnc(NC(=O)c2ccccc2)s1
TGI (NCI-H226 lung): > 100 µM | TGI (COLO 205 colon): > 100 µM

CC(=O)NNc1nc(C)c(C(/C=C/c2cccc([N+](=O)[O-])c2)=N/NC(=S)NN)s1
TGI (NCI-H226 lung): > 100 µM | TGI (COLO 205 colon): > 100 µM | TGI (PC-3 prostate): > 100 µM

CC(=O)OC1CC2OC(Cc3ccccc32)O1 (centres undefined)
TGI (KM20L2 colon): > 100 µM | TGI (NCI-H226 lung): > 100 µM | TGI (XF 498 CNS): > 100 µM | TGI (M19-MEL melanoma): > 100 µM | TGI (COLO 205 colon): > 100 µM | TGI (DLD-1 colon): > 100 µM | TGI (DMS 273 small cell lung): > 100 µM | TGI (HOP-18 NSCLC): 94.9 µM | TGI (DMS 114 small cell lung): > 100 µM | TGI (SNB-78 CNS): > 100 µM | TGI (LXFL 529 NSCLC): > 100 µM

C=C(C)[C@@H](C(=O)OC)N1C(=O)c2ccccc2C1=O
TGI (NCI-H226 lung): > 100 µM | TGI (COLO 205 colon): > 100 µM | TGI (PC-3 prostate): > 100 µM

N#Cc1nc(COCCOCc2ccccc2)oc1N
TGI (NCI-H226 lung): > 100 µM | TGI (COLO 205 colon): > 100 µM | TGI (PC-3 prostate): > 100 µM

CCN(CC)C(=O)C/C(C)=N/NC(=O)c1ccncc1
TGI (KM20L2 colon): > 100 µM | TGI (NCI-H226 lung): > 100 µM | TGI (XF 498 CNS): > 100 µM | TGI (COLO 205 colon): > 100 µM | TGI (DLD-1 colon): > 100 µM | TGI (DMS 273 small cell lung): > 100 µM | TGI (DMS 114 small cell lung): > 100 µM | TGI (SNB-78 CNS): > 100 µM | TGI (LXFL 529 NSCLC): > 100 µM

COC(=O)C(=O)C(C(=O)C=C(C)C)C(=O)C(=O)Nc1ccc(Cl)cc1C (centres undefined)
TGI (KM20L2 colon): > 100 µM | TGI (NCI-H226 lung): > 100 µM | TGI (RXF-631 renal): > 100 µM | TGI (M19-MEL melanoma): > 100 µM | TGI (COLO 205 colon): > 100 µM | TGI (DLD-1 colon): > 100 µM | TGI (DMS 273 small cell lung): > 100 µM | TGI (HOP-18 NSCLC): > 100 µM | TGI (DMS 114 small cell lung): > 100 µM | TGI (LXFL 529 NSCLC): > 100 µM

O=C(c1ccccc1)c1c2ccccn2c2cccc[n+]12
TGI (NCI-H226 lung): > 100 µM | TGI (COLO 205 colon): > 100 µM | TGI (PC-3 prostate): > 100 µM

Cc1oc2nc(N(C)C)nc(Cl)c2c1C
TGI (NCI-H226 lung): > 100 µM | TGI (COLO 205 colon): > 100 µM | TGI (PC-3 prostate): > 100 µM

O=C(CNc1ccc(Cl)cc1)Nn1c(-c2ccccc2)nc2ccccc2c1=O
TGI (NCI-H226 lung): 25.2 µM | TGI (COLO 205 colon): 18.6 µM | TGI (PC-3 prostate): 25.4 µM

CCN(CC)Cc1cc(Nc2ccnc3ccc4c(nnn4C)c23)ccc1O
TGI (COLO 205 colon): 32.4 µM | TGI (PC-3 prostate): 20.8 µM

O=[N+]([O-])C(C(Cl)=C(Cl)Cl)=C(N1CCOCC1)N1CCOCC1
TGI (NCI-H226 lung): > 100 µM | TGI (COLO 205 colon): > 100 µM | TGI (PC-3 prostate): > 100 µM

Cc1[nH]c(=O)[nH]c(=S)c1C(=O)NC(C)(CO)CO
TGI (NCI-H226 lung): > 100 µM | TGI (COLO 205 colon): > 100 µM | TGI (PC-3 prostate): > 100 µM

CN1CCC(OC(=O)Oc2ccccc2)(c2ccccc2)CC1
TGI (NCI-H226 lung): 62.7 µM | TGI (COLO 205 colon): 25.8 µM | TGI (PC-3 prostate): 45.8 µM

Nc1ccc(C(=O)Nn2c(-c3ccccc3)nc3ccccc3c2=O)cc1
TGI (NCI-H226 lung): > 100 µM | TGI (COLO 205 colon): > 100 µM | TGI (PC-3 prostate): > 100 µM

CC1(C)NC(=O)C(NC(=O)C(CC(=O)OCc2ccccc2)NC(=O)OCc2ccccc2)CCCCNC(=O)CCNC1=O (centres undefined) (Cbz-D(OBn)K[Aib][βAla]; lactam 2-C; configuration not given here)
TGI (NCI-H226 lung): > 100 µM | TGI (COLO 205 colon): > 100 µM | TGI (PC-3 prostate): > 100 µM

CCOC(=O)C(Cl)(NC(=O)c1ccc(F)cc1)C(F)(F)F (centres undefined)
TGI (NCI-H226 lung): > 100 µM | TGI (COLO 205 colon): > 100 µM | TGI (PC-3 prostate): > 100 µM

CNC(=O)N1CCN(C(=O)NC)CCN(C(=O)NC)CC1
TGI (NCI-H226 lung): > 100 µM | TGI (COLO 205 colon): > 100 µM | TGI (PC-3 prostate): > 100 µM

CC(=O)c1cccc2c1CC1(C2)Cc2ccc3c(c2C1=O)CCC3 (centres undefined)
TGI (NCI-H226 lung): > 100 µM | TGI (COLO 205 colon): 92.4 µM | TGI (PC-3 prostate): > 100 µM

Clc1ccc2c(NCCCCN=Cc3ccccc3)ccnc2c1
TGI (NCI-H226 lung): 20 µM | TGI (COLO 205 colon): 18.1 µM | TGI (PC-3 prostate): 25.1 µM

CC(=O)OCC1OC(N2C(c3ccccc3)=CC(c3ccccc3)C(C#N)=C2S)C(OC(C)=O)C(OC(C)=O)C1OC(C)=O (centres undefined)
TGI (NCI-H226 lung): > 100 µM

CCOC(=O)Cn1sc2ncc([N+](=O)[O-])cc2c1=O
TGI (NCI-H226 lung): > 100 µM | TGI (COLO 205 colon): 25.6 µM | TGI (PC-3 prostate): 28 µM

COC(=O)CCC(=O)NC1c2cccc3cccc(c23)Cn2c(=O)n(C)c(=O)n21 (centres undefined)
TGI (COLO 205 colon): > 100 µM | TGI (PC-3 prostate): > 100 µM

O=C1SCC(O)=C1/C=N/Nc1nc2ccccc2o1
TGI (NCI-H226 lung): 76.6 µM | TGI (COLO 205 colon): 81 µM | TGI (PC-3 prostate): 88.6 µM

Cc1c(Cc2ccccc2)n(COCCCO)c(=O)[nH]c1=O
TGI (NCI-H226 lung): > 100 µM | TGI (COLO 205 colon): > 100 µM | TGI (PC-3 prostate): > 100 µM

CO/N=C(\C(=O)Nc1cncs1)c1csc(NC(c2ccccc2)(c2ccccc2)c2ccccc2)n1
TGI (NCI-H226 lung): > 10 µM | TGI (COLO 205 colon): > 10 µM | TGI (PC-3 prostate): > 10 µM

O=C(c1ccc(Cl)cc1Cl)N(C(=O)N1CCCCC1)c1ccccc1
TGI (NCI-H226 lung): > 100 µM | TGI (COLO 205 colon): > 100 µM | TGI (PC-3 prostate): > 100 µM

Clc1cccc(Cl)c1C1SCC2=Nc3ccccc3CN21 (centres undefined)
TGI (COLO 205 colon): 27 µM | TGI (PC-3 prostate): 52.4 µM

COc1ccc(OC)c2c1C(=O)C(Cl)=C(N1CCN(CCOCCO)CC1)C2=O
TGI (NCI-H226 lung): 39.5 µM | TGI (PC-3 prostate): 16 µM

CCOC(=O)NC(Nc1ccc(S(=O)(=O)Nc2ncccn2)cc1)(C(=O)OCC)C(F)(F)F (centres undefined)
TGI (NCI-H226 lung): > 100 µM | TGI (COLO 205 colon): > 100 µM | TGI (PC-3 prostate): > 100 µM

Cc1ccc(S(=O)(=O)OC2C3OC(C)(C)OC3OC2C(c2cc(O)c3c(c2O)C(=O)c2ccccc2C3=O)c2cc(O)c3c(c2O)C(=O)c2ccccc2C3=O)cc1 (centres undefined)
TGI (NCI-H226 lung): > 10 µM | TGI (COLO 205 colon): > 10 µM | TGI (PC-3 prostate): > 10 µM

From PubChem BioAssay (NCI)
